Experimental data reported in ChEMBL document CHEMBL1201862, “PubChem BioAssay data set” (2004).
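Values below derive from 48-hour exposures of cells grown in 96-well plates, with endpoints linearly interpolated between the two concentrations bracketing the appropriate inhibition level. GI50 marks 50% less growth.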 Calls of active or inactive are those of the source. No stated cut-off is given here; in the data, active = GI50 up to about 1.1 µM and inactive = higher.

Experiments:
Assay in all cases: inhibition of tumour cell growth, NCI panel, 48 h
M14 = test system: M14
DU-145 = test system: DU-145
HOP-62 = test system: HOP-62
SK-MEL-2 = test system: SK-MEL-2
Malme-3M = test system: Malme-3M
K562 = test system: K562
SF-268 = test system: SF-268
SK-MEL-5 = test system: SK-MEL-5
U-251 = test system: U-251
CAKI-1 = test system: CAKI-1
MDA-N = test system: MDA-N
ACHN = test system: ACHN
HL-60 = test system: HL-60
LOX IMVI = test system: LOX IMVI
OVCAR-4 = test system: OVCAR-4
A498 = test system: A498
UO-31 = test system: UO-31
RPMI-8226 = test system: RPMI-8226
SR = test system: SR
HOP-92 = test system: HOP-92

SMILES	GI50 (M14)	GI50 (DU-145)	GI50 (HOP-62)	GI50 (SK-MEL-2)	GI50 (Malme-3M)	GI50 (K562)	GI50 (SF-268)	GI50 (SK-MEL-5)	GI50 (U-251)	GI50 (CAKI-1)	GI50 (MDA-N)	GI50 (ACHN)	GI50 (HL-60)	GI50 (LOX IMVI)	GI50 (OVCAR-4)	GI50 (A498)	GI50 (UO-31)	GI50 (RPMI-8226)	GI50 (SR)	GI50 (HOP-92)
COC(=O)/C=c1/c2ccccc2n2c1c1ccccc1[n+]2C	3.99 µM (inactive)	6.41 µM (inactive)	3.05 µM (inactive)	4.08 µM (inactive)	2.98 µM (inactive)	3.64 µM (inactive)	5.38 µM (inactive)	2.81 µM (inactive)	2.61 µM (inactive)	15.1 µM (inactive)	3.54 µM (inactive)	3.92 µM (inactive)	2.84 µM (inactive)	4.27 µM (inactive)	4.11 µM (inactive)	4.18 µM (inactive)	7.13 µM (inactive)	2.77 µM (inactive)	–	–
CCOC(=S)SCC(=O)O	> 100 µM (inactive)	–	> 100 µM (inactive)	> 100 µM (inactive)	> 100 µM (inactive)	> 100 µM (inactive)	> 100 µM (inactive)	> 100 µM (inactive)	> 100 µM (inactive)	> 100 µM (inactive)	> 100 µM (inactive)	> 100 µM (inactive)	2.01 µM (inactive)	> 100 µM (inactive)	> 100 µM (inactive)	> 100 µM (inactive)	> 100 µM (inactive)	> 100 µM (inactive)	> 100 µM (inactive)	> 100 µM (inactive)
CSc1nc(Cl)c2c(n1)Sc1nc3cc4c(cc3n1C2O)OCO4 (configuration not stated)	0.333 µM (active)	0.318 µM (active)	0.701 µM (active)	0.726 µM (active)	0.516 µM (active)	0.29 µM (active)	0.637 µM (active)	0.526 µM (active)	0.791 µM (active)	2.95 µM (inactive)	0.237 µM (active)	0.946 µM (active)	–	0.206 µM (active)	> 100 µM (inactive)	3.44 µM (inactive)	0.46 µM (active)	0.385 µM (active)	–	–
CC(=O)Nc1ccc(S(=O)(=O)/N=c2/sc(S(N)(=O)=O)nn2C)cc1	> 100 µM (inactive)	> 100 µM (inactive)	> 100 µM (inactive)	> 100 µM (inactive)	> 100 µM (inactive)	–	> 100 µM (inactive)	–	> 100 µM (inactive)	> 100 µM (inactive)	–	> 100 µM (inactive)	> 100 µM (inactive)	–	> 100 µM (inactive)	> 100 µM (inactive)	> 100 µM (inactive)	> 100 µM (inactive)	> 100 µM (inactive)	> 100 µM (inactive)
COC(=O)/C(=N\N)C(C(=O)C(=O)Nc1cccc([N+](=O)[O-])c1)c1nc2ccc(C(=O)c3ccccc3)cc2nc1O (configuration not stated)	> 100 µM (inactive)	> 100 µM (inactive)	73.1 µM (inactive)	> 100 µM (inactive)	–	–	> 100 µM (inactive)	71 µM (inactive)	> 100 µM (inactive)	> 100 µM (inactive)	> 100 µM (inactive)	> 100 µM (inactive)	32.5 µM (inactive)	> 100 µM (inactive)	40.2 µM (inactive)	–	37.5 µM (inactive)	–	–	35.7 µM (inactive)
Cc1csc(-n2nc(C)cc2C)n1	> 100 µM (inactive)	> 100 µM (inactive)	> 100 µM (inactive)	> 100 µM (inactive)	> 100 µM (inactive)	> 100 µM (inactive)	> 100 µM (inactive)	> 100 µM (inactive)	> 100 µM (inactive)	> 100 µM (inactive)	> 100 µM (inactive)	> 100 µM (inactive)	> 100 µM (inactive)	> 100 µM (inactive)	> 100 µM (inactive)	> 100 µM (inactive)	> 100 µM (inactive)	> 100 µM (inactive)	–	–
Cc1nc(N)sc1/N=N/c1cc(Cl)c([N+](=O)[O-])cc1Cl	50.4 µM (inactive)	13.6 µM (inactive)	33.7 µM (inactive)	22.8 µM (inactive)	12 µM (inactive)	13.1 µM (inactive)	29.9 µM (inactive)	4.22 µM (inactive)	16.3 µM (inactive)	27.4 µM (inactive)	–	20.4 µM (inactive)	22.9 µM (inactive)	16.9 µM (inactive)	–	–	24.9 µM (inactive)	2.29 µM (inactive)	13.6 µM (inactive)	–
CCCCCCCCCCCCOC(=N)N1CCOCC1	3.95 µM (inactive)	–	17.3 µM (inactive)	9.51 µM (inactive)	19 µM (inactive)	1.88 µM (inactive)	15 µM (inactive)	11 µM (inactive)	9.46 µM (inactive)	4.13 µM (inactive)	–	14.2 µM (inactive)	1.55 µM (inactive)	14.5 µM (inactive)	7.62 µM (inactive)	6.59 µM (inactive)	13.5 µM (inactive)	1.87 µM (inactive)	1.56 µM (inactive)	1.32 µM (inactive)
